Measured values published in US9067989B2, “Eotaxin-2 (CCL24) inhibitors in inflammatory, autoimmune, and cardiovascular disorders” (THE MEDICAL RESEARCH, INFRASTRUCTURE, AND HEALTH SERVICES …, priority 2009, dated 2015).

Test system: adjuvant induced arthritis
Assay: Adjuvant induced arthritis in Lewis rats
Type: in vivo, rat
Settings: D8 100 μg 3x/week, methotrexate 0.25 mg/kg once weekly, from day 3, compared to PBS
Description: Adjuvant arthritis was induced in Lewis rats (six-week-old male Lewis rats obtained from Harlan, Israel) by injection of […]. […] was prepared by suspending heat-killed Mycobacterium Tuberculosis (Difco, Detroit, Mich.) in mineral oil at 10 mg/ml. Rats were injected intradermally with 100 μl adjuvant at the base of the tail. Arthritis developed by day 10 post injection.
Rats (8 per group) were treated by intraperitoneal (IP) injection with 3 monoclonal antibodies against eotaxin-2, (G7, G8, D8) 3×/week. Controls were treated with total mouse (non specific) IgG or PBS. Injections were started on the third day after adjuvant administration and were performed three times a week until the rats were sacrificed. […]
Arthritis severity was evaluated by measuring body weight, paw swelling, arthritic score and whole animal mobility. […]
Body weight in grams was measured every other day as an indicator of systemic inflammation.
Evaluation of Paw swelling. Ankle and wrist diameter in mm (to one place after the decimal point) were recorded three times a week using a caliper. […]
Finger and toe swelling was recorded according to their partial contribution: Ankles (feet): each toe scored 0.2; Wrist: each finger scored 0.25 Sum of all joints was calculated.
Whole animal Mobility was scored between 0-4, according to the following definitions: […]

CN(Cc1cnc2nc(N)nc(N)c2n1)c1ccc(C(=O)N[C@@H](CCC(=O)O)C(=O)O)cc1 [methotrexate]
protection against development of arthritis (arthritic score), prevention mode: significant, comparable protection
protection against development of arthritis (arthritic score), prevention mode (listed as MTX): statistically significant effect (p<0.05)
